Measurements: US4416870A, “Antibiotic compound, its production and its medicinal use” (Bayer Aktiengesellschaft, priority 1981, dated 1983)
*1 amine or outer side, *2 acyl side, *3 side chain or, on linkers, in order; H or OH if unused. Where a SMILES comes first, the peptide text is derived from it. [ ]: non-standard residue; d: D form. ξ: configuration not given here. X1 = Cn1c(=O)ccn(C2SC(C(O)C(N[*:1])C(=O)[*:2])C(O)C2O)c1=O; ξOrn(N(OH)Ac) = CC(=O)N(O)CCCC(N)C(=O)O; ξS = NC(CO)C(=O)O

Key:
[1] = physchem; details: organic solvent or mixture
[2] = system: Klebsiella pneumoniae 63; assay: Animal test (mice), ED100 after intraperitoneal infection and subcutaneous treatment (Example B); assay type: in vivo, mice infected with Klebsiella pneumoniae; details: sc, dose at which all infected and treated animals survive
Description: (§1) BAYi 3265 component A animal test (mice) | ED100 after intraperitoneal | infection and subcutaneous |Infecting germ treatment in mg/kg The animals were infected with a quantity of bacteria, which quantity led to the death of the control animals within 24 hours. The ED100 was the dose which allowed all infected and treated animals to survive.

[3] = system: E. coli Neumann; assay: as above; assay type: in vivo, mice infected with E. coli; details: Escherichia coli, sc, dose at which all infected and treated animals survive
Description: as §1

[4] = system: E. coli 205 Kn; assay: as above; assay type: in vivo, mice infected with E. coli; details: Escherichia coli, sc, dose at which all infected and treated animals survive
Description: as §1

[5] = system: E. coli Neumann; assay: White mouse, ED100 (complete cure) on infection with E. coli Neumann, single subcutaneous application; assay type: in vivo, white mouse infected with E. coli; details: Escherichia coli, sc, 0.5 h, once, 30 minutes after infection, subcutaneously
Description: For the white mouse, an ED100 (complete cure) is found in vivo, at 3 mg of antibiotic/kg of body weight, on infection with E. coli Neumann; therapy: application once, 30 minutes after infection, subcutaneously.

CC(=O)N(O)CCCC(N)C(=O)NC(CCCN(O)C(C)=O)C(=O)NC(CCCN(O)C(C)=O)C(=O)NC(CO)C(=O)NC(C(=O)O)C(O)C1SC(n2ccc(=O)n(C)c2=O)C(O)C1O (centres unmarked) [BAYi 3265 Component A] (H-[ξOrn(N(OH)Ac)][ξOrn(N(OH)Ac)][ξOrn(N(OH)Ac)][ξS][X1]-OH)
solubility ([1]; chloroform): < 100 µg/mL | solubility ([1]; dimethylformamide): < 10000 µg/mL | solubility ([1]; dimethylsulphoxide): < 10000 µg/mL | solubility ([1]; ether): < 100 µg/mL | solubility ([1]; ethyl acetate): < 100 µg/mL | solubility ([1]; methanol): < 10000 µg/mL | solubility ([1]; petroleum ether): < 100 µg/mL | ED100 [2]: 0.2 mg/kg | ED100 [3]: 0.5 mg/kg | ED100 [4]: 0.1 mg/kg | ED100 [5]: 3 mg/kg
